These are literature values, as cited in US20240041983A1, “IMPROVED PHARMACEUTICAL FORMULATIONS OF GLP-1 RECEPTOR AGONISTS” (CYPRUMED GMBH, priority 2020, published 2024).

The conditions of the series: in humans.

Take semaglutide: the t½ is ~1 week.
